Reference: US20190359560A1, “ANTI-INFLAMMATORY DRUG AND USES THEREOF” (KYUSHU UNIVERSITY, NATIONAL UNIVERSITY CORPORATION, priority 2015, published 2019)

Legend:
Format in all cases: cell-based, mouse
[1] = tested on: G0S2 promoter (−2030→+10); assay: G0S2 promoter (−2030→+10) luciferase assay in Hepa1-6 cells; conditions: Hepa1-6 reporter cells, 10 μM, 24 hours
Protocol: To get closer to the environment in the liver, a cell stably expressing an expression cassette in which a luciferase gene was ligated to the downstream side of the G0S2 promoter (−2030→+10) was constructed in the Hepa1-6 cell, which is a mouse hepatoma-derived cell. Using this cell, an effect of the candidate compounds on the luciferase activity was evaluated in the same manner as in the primary screening described above.

G0S2 mRNA = G0S2 mRNA expression in Hepa1-6 cells (qRT-PCR); conditions: 48 hours
Protocol: The effect of the compound on the expression level of mRNA of the G0S2 gene was evaluated for the three compounds extracted so far. 24 hours after seeding with Hepa1-6 cells, the cells were exposed to hit compounds at 10 μM and sampling and total RNA extraction were carried out 24 hours later. Subsequently, changes in the expression level of mRNA of the G0S2 gene were measured by a qRT-PCR method.
Hepa1-6 cells were exposed to 10 μM of each of seven derivatives of Compound No. 2 (Examples 2 and 4 to 9) and an effect of the derivative compounds on the expression level of G0S2 mRNA after 24 hours was evaluated.
Therefore, Hepa1-6 cells were exposed to Compound No. 2 and the compound of Example 2 (NS-3-011) in the range of 0.5 to 5 μM and an effect of the compounds on the expression level of endogenous G0S2 mRNA after 48 hours was evaluated.
Subsequently, Hepa1-6 cells were transfected with siRNA against Hsd17b4 or control siRNA in the presence (10 μM) or absence (indicated as “DMSO” in FIG. 22B) of Compound No. 2. Subsequently, each cell was recovered after 48 hours and total RNA was extracted. Subsequently, the expression level of the G0S2 gene was quantified by real-time PCR.

G0S2 promoter = G0S2 promoter luciferase activity in O-4000E cell line, IC50; conditions: O-4000E cells, 24 hours after exposure
Protocol: The present inventors have searched for a G0S2 gene transcription inhibitor. In searching, the present inventors have received a compound library consisting of 9600 compounds (Core library) from the Open Innovation Center for Drug Discovery, The University of Tokyo. For this compound library, primary screening was carried out by evaluating an effect of compounds on a luciferase activity using a 384-well plate. The drug efficacy evaluation was studied three times for each compound (final concentration of 10 μM) using a cell line stably expressing an expression cassette in which a luciferase gene was ligated to the downstream side of the G0S2 promoter (−2030→−1378), and compounds which reduced a luciferase activity to less than ¼ were extracted from all studies. As a result, 175 compounds were hit.
For the evaluation of drug efficacy of Compound Nos. 1 and 2, which are hit compounds, an IC50 was calculated. The O-4000E cell line was seeded, and Compound Nos. 1 and 2 were serially diluted in […] so as to have final concentrations of 0.15625 μM to 10 μM, followed by exposure of the cells to the compounds. The luciferase activity was measured 24 hours after the exposure, and the curve fitting was carried out to calculate an IC50 of the compounds.
Detailed drug efficacy evaluation at low concentrations was carried out for the compound of Example 2 (NS-3-011) whose drug efficacy at a concentration of less than 10 μM was observed based on the studies so far and which is expected to have an effect equal to or more than that of Compound No. 2. First, using O-4000E cells, IC50 of Compound No. 2 and the compound of Example 2 (NS-3-011) on the G0S2 promoter activity was calculated.

IC50 (G0S2 promoter; Mus musculus, 24 h): 2250 nM | IC50 (G0S2 promoter): 2310 nM
Compound: CCCCCCNC(=N)NCc1ccccc1 [Compound No. 2]
G0S2 promoter (−2030→+10) activity (relative value) [1]: less than ½ | G0S2 mRNA expression level (G0S2 mRNA; 5 μM, vs DMSO): significant decrease | effect of lowering the expression level of the G0S2 gene after transfection with siRNA against Hsd17b4 (G0S2 mRNA; 10 μM): disappeared | expression level of the G0S2 gene (G0S2 mRNA; 10 μM, control siRNA): significantly decreased
